Measurements from ChEMBL document CHEMBL1139745, “Synthesis and biological study of 4-aminopyrimidine-5-carboxaldehyde oximes as antiproliferative VEGFR-2 inhibitors” (Bioorg Med Chem Lett, 2006).

Key:
HeLa [1] = experiment: Antiproliferative activity against HeLa cells; format: functional, cell-based; settings: Homo sapiens
HCT-116 = experiment: Antiproliferative activity against HCT116 cells; format: functional, cell-based; settings: Homo sapiens
A-375 = experiment: Antiproliferative activity against A375 cells; format: functional, cell-based; settings: Homo sapiens
HeLa [2] = experiment: Cell cycle arrest by accumulation at G2 phase in human HeLa cells at 62.5 nM; format: functional
HeLa [3] = experiment: Cell cycle arrest in human HeLa cells by accumulation at G1 phase at 62.5 nM; format: functional
HeLa [4] = experiment: Cell cycle arrest in human HeLa cells by accumulation at S phase at 62.5 nM; format: functional
[5] = target: Vascular endothelial growth factor receptor 2 (Homo sapiens, UniProt P35968); experiment: Inhibition of VEGFR2
Sequence of Vascular endothelial growth factor receptor 2 (P35968 whole entry): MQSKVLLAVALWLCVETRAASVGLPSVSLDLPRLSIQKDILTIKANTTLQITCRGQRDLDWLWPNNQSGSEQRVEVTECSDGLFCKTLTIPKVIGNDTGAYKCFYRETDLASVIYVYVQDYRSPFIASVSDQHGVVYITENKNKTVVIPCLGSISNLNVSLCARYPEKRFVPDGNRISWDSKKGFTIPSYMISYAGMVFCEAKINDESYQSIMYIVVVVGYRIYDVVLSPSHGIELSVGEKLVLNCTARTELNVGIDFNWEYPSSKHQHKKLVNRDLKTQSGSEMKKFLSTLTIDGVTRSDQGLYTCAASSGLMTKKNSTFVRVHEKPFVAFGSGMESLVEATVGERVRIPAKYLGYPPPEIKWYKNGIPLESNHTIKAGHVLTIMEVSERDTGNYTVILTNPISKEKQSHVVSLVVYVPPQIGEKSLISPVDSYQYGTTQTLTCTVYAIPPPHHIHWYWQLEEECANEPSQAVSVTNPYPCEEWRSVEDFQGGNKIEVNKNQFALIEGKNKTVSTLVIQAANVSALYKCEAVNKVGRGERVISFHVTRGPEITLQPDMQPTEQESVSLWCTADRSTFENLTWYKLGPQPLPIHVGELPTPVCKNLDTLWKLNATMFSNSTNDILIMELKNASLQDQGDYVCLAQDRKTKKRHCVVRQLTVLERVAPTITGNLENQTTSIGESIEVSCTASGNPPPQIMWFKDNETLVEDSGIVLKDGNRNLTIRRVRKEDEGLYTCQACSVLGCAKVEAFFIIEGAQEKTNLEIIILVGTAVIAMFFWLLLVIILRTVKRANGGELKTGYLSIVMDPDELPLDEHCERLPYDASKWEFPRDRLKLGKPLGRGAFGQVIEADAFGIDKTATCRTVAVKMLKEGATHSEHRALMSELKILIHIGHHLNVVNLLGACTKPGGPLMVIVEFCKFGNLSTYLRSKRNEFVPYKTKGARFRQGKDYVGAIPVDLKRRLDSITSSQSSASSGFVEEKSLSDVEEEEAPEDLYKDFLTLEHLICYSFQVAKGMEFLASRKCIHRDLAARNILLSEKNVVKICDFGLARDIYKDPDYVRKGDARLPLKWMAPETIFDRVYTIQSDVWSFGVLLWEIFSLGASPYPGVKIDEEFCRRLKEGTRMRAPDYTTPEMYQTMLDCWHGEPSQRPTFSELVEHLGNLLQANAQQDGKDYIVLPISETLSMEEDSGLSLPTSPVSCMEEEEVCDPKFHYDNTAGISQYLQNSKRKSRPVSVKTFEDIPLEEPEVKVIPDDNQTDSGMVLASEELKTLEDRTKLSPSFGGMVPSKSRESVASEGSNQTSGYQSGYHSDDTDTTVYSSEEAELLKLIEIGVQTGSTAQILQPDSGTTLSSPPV

SMILES	IC50 (HeLa [1]) [nM]	IC50 (HCT-116) [nM]	IC50 (A-375) [nM]	IC50 [5] [nM]	Activity (HeLa [2]) [%]	Activity (HeLa [3]) [%]	Activity (HeLa [4]) [%]
Cc1cc2c(F)c(Oc3ncnc(N)c3/C=N/OCC3CCCCC3)ccc2[nH]1	22700	16100	4920				
CO/N=C/c1c(N)ncnc1Oc1ccc2[nH]ccc2c1	1870	3520	783				
Cc1cc2c(F)c(Oc3ncnc(N)c3/C=N/OCCO)ccc2[nH]1	406	323	372				
CO/N=C/c1c(N)ncnc1Oc1ccc2ncccc2c1	3430	2870	1820				
CCCCO/N=C/c1c(N)ncnc1Oc1ccc2[nH]c(C)cc2c1F	607	1000	446				
CO/N=C/c1c(N)ncnc1Oc1ccc2cccnc2c1	1820	2620	886				
Cc1cc2c(F)c(Oc3ncnc(N)c3/C=N/OCCN3CCCC3)ccc2[nH]1	4220	4610	2160				
CNCCO/N=C/c1c(N)ncnc1Oc1ccc2[nH]c(C)cc2c1F	2010	3010	345				
Cc1cc2c(F)c(Oc3ncnc(N)c3/C=N/O)ccc2[nH]1	472	1140	492	33			

More lines, in order of falling IC50 (HeLa [1]), values ahead:

IC50 (HeLa [1]) [nM]	IC50 (HCT-116) [nM]	IC50 (A-375) [nM]	IC50 [5] [nM]	SMILES	Activity (HeLa [2]) [%]	Activity (HeLa [3]) [%]	Activity (HeLa [4]) [%]
401	365	492		CO/N=C/c1c(N)ncnc1Oc1ccc2[nH]ccc2c1F			
388	386	356		CO/N=C/c1c(N)ncnc1Oc1ccc2[nH]c(C)cc2c1			
382	422	327		CO/N=C/c1c(N)ncnc1Oc1cc2cc[nH]c2cc1F			
375	749	326		CO/N=C/c1c(N)ncnc1Oc1ccc2c(ccn2C)c1			
362	452	336		Cc1cc2c(F)c(Oc3ncnc(N)c3/C=N/OCCCO)ccc2[nH]1			
346	438	300		COCCCO/N=C/c1c(N)ncnc1Oc1ccc2[nH]c(C)cc2c1F			
308	387	233		COCCO/N=C/c1c(N)ncnc1Oc1ccc2[nH]c(C)cc2c1F			
306	385	132		CO/N=C/c1c(N)ncnc1Oc1ccc2[nH]cc(C)c2c1			
266	311	62		Cc1cc2c(F)c(Oc3ncnc(N)c3/C=N/OCc3ccccc3)ccc2[nH]1			
42	40	21		C=CCO/N=C/c1c(N)ncnc1Oc1ccc2[nH]c(C)cc2c1F	99.76	0.24	0
40	30	28		CCCO/N=C/c1c(N)ncnc1Oc1ccc2[nH]c(C)cc2c1F			
32	36	27		CCO/N=C/c1c(N)ncnc1Oc1ccc2[nH]c(C)cc2c1F			
